Target: T1, HGFR (His6-HGFR cytoplasmic domain) (Homo sapiens, UniProt P08581)
T1 construct: made in house; host or cells: Spodoptera frugiperda Sf9 insect cells (baculovirus, pFastBac-HT)
Assay: Inhibitory activity against HGFR tyrosine kinase activity (HTRF)
Assay type: biochemical
Conditions: biotin-poly(GT), ATP, 30° C. 10 min, read-out: IC50 (concentration necessary to inhibit HGFR kinase activity by 50%)
Source text: The cytoplasmic domain of HGFR (Genbank Accession No. J02958) is a 1.3 kb DNA fragment beginning with Lys974 and including a stop codon, and described by Park et al. (Proc. Natl. Acad. Sci. U.S.A. 84(18), 6379-6383, 1987). The DNA fragment was isolated from the human placental cDNA library (purchased from Clontech) by PCR (TaKaRa Ex Taq™ Kit, purchased from TaKaRa) using two kinds of primers (SEQ ID NO: 1, 5′-[…]-3′ and SEQ ID NO: 2, 5′-[…]-3′, purchased from Invitrogen). The DNA fragment was cloned into a baculovirus transplace vector (pFastBac™-HT (purchased from GIBCO BRL)) to produce a recombinant construct. The construct was transfected into insect cells (Spodoptera frugiperda 9 (Sf9)) to produce a solution of HGFR transfected baculovirus (preparation of a recombinant baculovirus can be found in the standard text (Bac-to-Bac Baculovirus Expression System (GIBCO BRL)). The cloning of the other receptor tyrosine kinases and preparation of the recombinant baculovirus solutions were performed using a cytoplasmic fragment starting from Lys791 (VEGFR2, Genbank Accession No. L04947), a cytoplasmic fragment starting from Lys398 (FGFR1, Genbank Accession No. X52833) and a cytoplasmic fragment starting from Lys558 (PDGFRβ, Genbank Accession No. M21616) in stead of HGFR in the above method. EGFR was purchased from Sigma (Production No. E-2645).
To the suspension of Sf9 cells (3×10^8 cells) in SF-900II medium (purchased from Invitrogen) containing 2% FBS was added a solution of HGFR transfected baculovirus above (4 ml), followed by a shaking culture at 27° C. for 48 hrs. The cells infected with the HGFR transfected baculovirus were centrifuged at 1,000 rpm, 4° C. for 5 min to remove the supernatant. The precipitated infected cells were suspended in 80 ml of ice-cold PBS, and centrifuged at 1,000 rpm, 4° C. for 5 min to remove the supernatant. The precipitated infected cells were suspended in 40 ml of ice-cold Lysis Buffer (50 mM Tris-HCl (pH 8.5), 5 mM 2-mercaptoethanol, 100 mM KCl, 1 mM PMSF and 1% (v/v) NP-40). The suspension was centrifuged at 12,000 rpm, 4° C. for 30 min to provide a supernatant.
The supernatant was loaded onto an Ni-NTA agarose column (3 ml, purchased from Qiagen) equilibrated with 30 ml of Buffer A (20 mM Tris-HCl (pH 8.5), 5 mM 2-mercaptoethanol, 500 mM KCl, 20 mM imidazole and 10% (v/v) glycerol). The column was washed with 30 ml of Buffer A, 6 ml of Buffer B (20 mM Tris-HCl (pH 8.5), 5 mM 2-mercaptoethanol, 1 M KCl, and 10% (v/v) glycerol) and 6 ml of Buffer A in this order. Then, the column was eluted with 6 ml of Buffer C (20 mM Tris-HCl (pH 8.5), 5 mM 2-mercaptoethanol, 100 mM KCl, 100 mM imidazole, and 10% (v/v) glycerol) to provide a fraction. The fraction was entrapped in a dialysis membrane (purchased from Spectrum Laboratories), dialyzed at 4° C. overnight with 1 L of dialysis buffer (20 mM Tris-HCl (pH 7.5), 10% (v/v) glycerol, 1 mM dithiothreitol, 0.1 mM Na3VO4 and 0.1 mM EGTA), and stored at −80° C. until used. An aliquot of the dialyzed fraction was subjected to SDS electrophoresis, and then a recombinant protein (His6-HGFR, the HGFR cytoplasmic domain fused with six histidine at the N terminus) detected at a molecular weight of about 60 kDa when stained with Coomassie Brilliant Blue, was determined with regard to protein content using BSA (purchased from Sigma) as a standard. The VEGFR2 cytoplasmic domain, the FGFR1 cytoplasmic domain, and the PDGFRβ cytoplasmic domain were fused with six histidine at the N terminus by the similar method to produce respective recombinant proteins (His6-VEGFR2, His6-FGFR1, and His6-PDGFRβ). […]

T1 sequence (P08581 956-1390 limits assumed): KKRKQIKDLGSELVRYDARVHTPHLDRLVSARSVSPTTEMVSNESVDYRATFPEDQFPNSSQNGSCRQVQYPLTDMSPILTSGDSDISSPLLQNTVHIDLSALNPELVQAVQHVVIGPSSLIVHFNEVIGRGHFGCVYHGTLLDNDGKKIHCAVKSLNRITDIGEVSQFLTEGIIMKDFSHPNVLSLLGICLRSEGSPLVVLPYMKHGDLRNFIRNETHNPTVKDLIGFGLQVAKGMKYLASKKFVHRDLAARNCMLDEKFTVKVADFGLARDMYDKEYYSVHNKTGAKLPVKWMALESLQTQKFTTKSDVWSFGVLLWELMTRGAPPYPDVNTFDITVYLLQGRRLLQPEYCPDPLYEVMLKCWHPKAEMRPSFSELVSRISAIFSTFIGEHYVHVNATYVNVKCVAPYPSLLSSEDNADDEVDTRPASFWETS

| Structure (SMILES) | IC50 |
| --- | --- |
| CN1CCN(C2CCN(C(=O)Nc3cc(Oc4ccc(NC(=S)NC(=O)Cc5ccccc5)cc4F)ccn3)CC2)CC1 [Example 182, 4-{2-Fluoro-4-[3-(2-phenylacetyl)thioureido]phenoxy}-2-{[4-(1-methylpiperazin-4-yl)piperidin-1-yl]carbonylamino}pyridine] | 70 nM |
| CN(C)CCN1CCC(N(C)C(=O)Nc2cc(Oc3ccc(NC(=S)NC(=O)Cc4ccc(F)cc4)cc3F)ccn2)CC1 [Example 224, 1-[1-(2-Dimethylaminoethyl)piperidin-4-yl]-3-[4-(2-fluoro-4-{3-[2-(4-fluorophenyl)acetyl]thioureido}phenoxy)pyridin-2-yl]-1-methylurea] | 88 nM |
| CN(C)[C@H]1CCN(C(=O)Nc2cc(Oc3ccc(NC(=S)NC(=O)Cc4ccccc4)cc3F)ccn2)C1 [Example 246, 2-{[(3S)-3-Dimethylaminopyrrolidin-1-yl]carbonylamino}-4-{2-fluoro-4-[3-(2-phenylacetyl)thioureido]phenoxy}pyridine] | 79 nM |
| CN(C)[C@H]1CCN(C(=O)Nc2cc(Oc3ccc(NC(=O)NC(=O)Cc4ccccc4)cc3F)ccn2)C1 [Example 250, 2-{[(3S)-3-Dimethylaminopyrrolidin-1-yl]carbonylamino}-4-{2-fluoro-4-[3-(2-phenylacetyl)ureido]phenoxy}pyridine] | 68 nM |
| CN(C)C(=O)Nc1cc(Oc2ccc(NC(=O)NC(=O)Cc3ccccc3)c(F)c2)ccn1 [Example 54, 3-{4-[3-Fluoro-4-(3-phenylacetylureido)phenoxy]pyridin-2-yl}-1,1-dimethylurea] | 43 nM |
| CN(C)CCN1CCCN(C(=O)Nc2cc(Oc3ccc(NC(=S)NC(=O)Cc4ccccc4)cc3F)ccn2)CC1 [Example 334, 4-(2-Dimethylaminoethyl)-[1,4]diazepane-1-carboxylic acid {4-[2-fluoro-4-(3-phenylacetylthioureido)phenoxy]pyridin-2-yl}amide] | 120 nM |
| CN(C)C(=O)Nc1cc(Oc2ccc(NC(=O)CC(=O)Nc3ccc(F)cc3)c(F)c2)ccn1 [Example 84, N-{4-[2-(3,3-Dimethylureido)pyridin-4-yloxy]-2-fluorophenyl}-N′-(4-fluorophenyl)malonamide] | 12 nM |
| O=C(CC(=O)Nc1ccc(Oc2ccnc(NC(=O)N3CCOCC3)c2)cc1)Nc1ccc(F)cc1 [Example 71, N-(4-Fluorophenyl)-N′-(4-{2-[(morpholine-4-carbonyl)amino]pyridin-4-yloxy}phenyl)malonamide] | 25 nM |
| CN(C)CCN1CCC(N(C)C(=O)Nc2cc(Oc3ccc(NC(=S)NC(=O)Cc4ccc(F)cc4)cc3)ccn2)CC1 [Example 194, 1-[1-(2-Dimethylaminoethyl)piperidin-4-yl]-3-[4-(4-{3-[2-(4-fluorophenyl)acetyl]thioureido}phenoxy)pyridin-2-yl]-1-methylurea] | 62 nM |
| COc1ccccc1NC(=O)CC(=O)Nc1ccc(Oc2ccnc(NC(=O)N3CCCC3)c2)c(F)c1 [Example 60, N-(2-methoxyphenyl)-N′-(3-fluoro-4-{2-[(pyrrolidine-1-carbonyl)amino]pyridin-4-yloxy}phenyl)malonamide] | 49 nM |
| CC(=O)N1CCC(N(C)C(=O)Nc2cc(Oc3ccc(NC(=S)NC(=O)Cc4ccc(F)cc4)cc3F)ncn2)CC1 [Example 314, 1-(1-Acetylpiperidin-4-yl)-3-[6-(2-fluoro-4-{3-[2-(4-fluorophenyl)acetyl]thioureido}phenoxy)pyrimidin-4-yl]-1-methylurea] | 31 nM |
| CN1CC(N2CCN(C(=O)Nc3cc(Oc4ccc(NC(=S)NC(=O)Cc5ccccc5)cc4F)ccn3)CC2)C1 [Example 381] | 83 nM |
| CN(C)CC1CCN(C(=O)Nc2cc(Oc3ccc(NC(=S)NC(=O)Cc4ccccc4)cc3F)ccn2)CC1 [Example 311, 2-{[4-(Dimethylaminomethyl)piperidin-1-yl]carbonylamino}-4-(2-fluoro-4-{3-[2-(phenyl)acetyl]thioureido}phenoxy)pyridine] | 48 nM |

Results, then the compound that gave them:

| IC50 | Structure (SMILES) |
| --- | --- |
| 41 nM | CN(C)CCN1CCN(C(=O)Nc2cc(Oc3ccc(NC(=S)NC(=O)Cc4ccc(F)cc4)cc3F)ncn2)CC1 [Example 181, 4-{[4-(2-Dimethylaminoethyl)piperazin-1-yl]carbonylamino}-6-(2-fluoro-4-{3-[2-(4-fluorophenyl)acetyl]thioureido}phenoxy)pyrimidine] |
| 40 nM | CN1CCN(C2CCN(C(=O)Nc3cc(Oc4ccc(NC(=S)NC(=O)Cc5ccc(F)cc5)cc4F)ncn3)CC2)CC1 [Example 192, 4-(2-Fluoro-4-{3-[2-(4-fluorophenyl)acetyl]thioureido}phenoxy)-6-{[4-(1-methylpiperazin-4-yl)piperidin-1-yl]carbonylamino}pyrimidine] |
| 130 nM | CN(C)CCN1CCC(N(C)C(=O)Nc2cc(Oc3ccc(NC(=S)NC(=O)Cc4ccc(F)cc4)cc3F)ncn2)CC1 [Example 184, 1-[1-(2-Dimethylaminoethyl)piperidin-4-yl]-3-[6-(2-fluoro-4-{3-[2-(4-fluorophenyl)acetyl]thioureido}phenoxy)pyrimidin-4-yl]-1-methylurea] |
| 130 nM | O=C(Cc1ccc(F)cc1)NC(=S)Nc1ccc(Oc2cc(NC(=O)N3CCN(CCN4CCCC4)CC3)ncn2)c(F)c1 [Example 339, 4-(2-Pyrrolidin-1-ylethyl)piperazine-1-carboxylic acid [6-(2-fluoro-4-{3-[2-(4-fluorophenyl)acetyl]thioureido}phenoxy)pyrimidin-4-yl]amide] |
| 50 nM | CN(C)C1CN(C(=O)Nc2cc(Oc3ccc(NC(=S)NC(=O)Cc4ccc(F)cc4)cc3F)ncn2)C1 [Example 208, 3-Dimethylaminoazetidine-1-carboxylic acid [6-(2-fluoro-4-{3-[2-(4-fluorophenyl)acetyl]thioureido}phenoxy)pyrimidin-4-yl]amide] |
| 52 nM | CN1CCC(N2CCN(C(=O)Nc3cc(Oc4ccc(NC(=S)NC(=O)Cc5ccc(F)cc5)cc4F)ncn3)CC2)CC1 [Example 193, 4-(2-Fluoro-4-{3-[2-(4-fluorophenyl)acetyl]thioureido}phenoxy)-6-{[4-(1-methylpiperidin-4-yl)piperazin-1-yl]carbonylamino}pyrimidine] |
| 170 nM | CN(C)CCCN1CCC(N(C)C(=O)Nc2cc(Oc3ccc(NC(=S)NC(=O)Cc4ccc(F)cc4)cc3F)ncn2)CC1 [Example 221, 1-[1-(3-Dimethylaminopropyl)piperidin-4-yl]-3-[6-(2-fluoro-4-{3-[2-(4-fluorophenyl)acetyl]thioureido}phenoxy)pyrimidin-4-yl]-1-methylurea] |
| 48 nM | CN1CCC[C@@H](N(C)C(=O)Nc2cc(Oc3ccc(NC(=S)NC(=O)Cc4ccc(F)cc4)cc3F)ncn2)C1 [Example 312, 3-[6-(2-Fluoro-4-{3-[2-(4-fluorophenyl)acetyl]thioureido}phenoxy)pyrimidin-4-yl]-1-methyl-1-[(3R)-1-methylpiperidin-3-yl]urea] |
| 66 nM | CN1CCC(N(C)C(=O)Nc2cc(Oc3ccc(NC(=S)NC(=O)Cc4ccc(F)cc4)cc3F)ncn2)CC1 [Example 170, 3-[6-(2-Fluoro-4-{3-[2-(4-fluorophenyl)acetyl]thioureido}phenoxy)pyrimidin-4-yl]-1-methyl-1-(1-methylpiperidin-4-yl)urea] |

From patent publication US20070270421A1, “Novel pyridine Derivative and Pyrimidine Derivative (1)” (priority 2004, published 2007)
